This is an account of results in paper PMC3968781 (Journal of the American Chemical Society, 2014).

One may read the Km as the substrate concentration at which the rate is half of its maximum. As a reminder, the Ki is the equilibrium dissociation constant of an inhibitor or competing ligand from its target. A high value points to a looser hold on the target.

Structures are written as SMILES.

What all share (assay type): biochemical
Experiment [1] deals with T1, Nitrile hydratase (PtNHase), alpha subunit (Pseudonocardia thermophila, UniProt Q7SID2+Q7SID3).
T1 sequence (Q7SID2 2-204): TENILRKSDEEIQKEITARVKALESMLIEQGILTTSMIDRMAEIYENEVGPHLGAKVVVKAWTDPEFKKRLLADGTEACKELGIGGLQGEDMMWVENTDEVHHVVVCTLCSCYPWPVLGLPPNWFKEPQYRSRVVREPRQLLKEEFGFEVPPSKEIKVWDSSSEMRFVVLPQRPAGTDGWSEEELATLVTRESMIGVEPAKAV
T1 sequence (Q7SID3 1-233): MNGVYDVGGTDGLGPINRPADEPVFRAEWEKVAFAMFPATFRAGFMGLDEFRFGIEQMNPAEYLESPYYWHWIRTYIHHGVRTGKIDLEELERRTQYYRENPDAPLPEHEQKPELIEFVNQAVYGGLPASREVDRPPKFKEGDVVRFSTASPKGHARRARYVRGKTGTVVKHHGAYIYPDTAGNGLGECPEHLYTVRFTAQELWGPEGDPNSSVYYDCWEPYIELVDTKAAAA
Briefly: spectrophotometric hydration kinetics at […] nm.

Experiment [2] addresses T1, Nitrile hydratase (PtNHase), alpha subunit. Briefly: X-ray crystal structures.
Experiment [3] has the same target. Briefly: X-ray co-crystal structure.

Take `C=CC#N` [acrylonitrile]: the Km in experiment [1] was 800 ± 100 µM. Take `CCCCB(O)O` [BuBA, 1-butaneboronic acid]: the Ki in experiment [2] is 500 ± 100 nM.

On to `OB(O)c1ccccc1` [PBA, phenylboronic acid], for which, in experiment [3], the affinity, expressed as Ki, was 0.04 ± 0.01 nM.
